# From US6362369B1, “Phthalic acid diamide derivatives fluorine-containing aniline compounds as starting material, agricultural and horticultural insecticides, and a method for application of the insecticides” (Nihon Nohyaku Co., Ltd., priority 1997, dated 2002)
# What was measured:
# [1] = system: rice leafroller (Cnaphalocrocis medinalis); assay: Insecticidal effect on rice leafroller (Test Example 3); type: in vivo; settings: 500 ppm, 25° C., humidity 70%; for Insecticidal effect, Test Example 3: rice lamina immersed; for Insecticidal effect, Test Example 3 / Insecticidal effect on rice leafroller (Test Example 3), judged grade: four days after inoculation; for Insecticidal effect on rice leafroller (Test Example 3), judged grade / Insecticidal effect (Test Example 3), judged from mortality: rice lamina dip; for Insecticidal effect on rice leafroller (Test Example 3), judged grade: third-instar larvae; for Insecticidal effect (Test Example 3), judged from mortality: 4 days after inoculation
# Summary of the method: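 Insecticidal effect is judged by a predefined criterion from dead/alive counts four days after infesting air-dried lamina with third-instar larvae, kept on moistened filter paper at 25° C, 70% humidity.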
# [2] = system: diamondback moth (Plutella xylostella); assay: Insecticidal effect on diamondback moth (Test Example 1); type: in vivo; settings: for Insecticidal effect, Test Example 1 / Insecticidal effect (Test Example 1), judged from mortality: diamondback moth; for Insecticidal effect on diamondback moth (Test Example 1), judged grade: mortality judged according to the criterion shown in Test Example 1; for Insecticidal effect (Test Example 1), judged from mortality: judged by the criterion of Test Example 1
# Summary of the method: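 Oviposition by adults on Chinese cabbage seedling; immersion; air-dry; 25° C room. Count of hatched larvae at day 6 post-immersion → mortality → effect graded by criterion. Triplicate, 10 insects/group.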
# [3] = rice leafroller third-instar larvae
# [4] = mortality judged by criterion of Test Example 1
# [5] = third-instar larvae of rice leafroller
# [6] = judged by the mortality criterion of Test Example 1
structure (smiles),measurement,setting,value
Cc1cc(C(F)(F)C(F)(F)F)ccc1NC(=O)c1cccc(Cl)c1C(=O)NCc1ccc(Cl)c(Cl)c1 [compound 1351],"Insecticidal effect, Test Example 3",[1]; [3],A (100)
same,"Insecticidal effect, Test Example 1",[2]; [4],A (100)
CC(C)NC(=O)c1c(Cl)cccc1C(=O)Nc1ccc(SC(F)F)cc1 [compound 98],"Insecticidal effect, Test Example 3",[1]; [5],C (89-80)
same,"Insecticidal effect, Test Example 1",[2]; [6],A (100)
Cc1cc(OC(F)F)ccc1NC(=O)c1c(Cl)cccc1C(=O)NC1CC1 [compound 850],"Insecticidal effect on rice leafroller (Test Example 3), judged grade",[1],A (100)
same,"Insecticidal effect on diamondback moth (Test Example 1), judged grade",[2],A (100)
Cc1nc(-c2cccc(NC(=O)c3cccc(I)c3C(=O)NC(C)C)c2)co1 [compound 1659],"Insecticidal effect (Test Example 3), judged from mortality",[1]; [5],A (100)
same,"Insecticidal effect (Test Example 1), judged from mortality",[2],A (100)
CC(C)NC(=O)c1c(I)cccc1C(=O)Nc1c(Cl)ccc2c1OC(F)(F)O2 [compound 1743],"Insecticidal effect (Test Example 3), judged from mortality",[1]; [5],A (100)
same,"Insecticidal effect (Test Example 1), judged from mortality",[2],A (100)
Cc1cc(OC(F)(F)F)ccc1NC(=O)c1cccc(I)c1C(=O)NC(C)(C)CO [compound 1519],"Insecticidal effect (Test Example 3), judged from mortality",[1]; [5],A (100)
same,"Insecticidal effect (Test Example 1), judged from mortality",[2],A (100)
C=CC(C)(C)NC(=O)c1cccc(Cl)c1C(=O)Nc1ccc(C(F)(F)C(F)(F)F)cc1C [compound 1589],"Insecticidal effect (Test Example 3), judged from mortality",[1]; [5],A (100)
same,"Insecticidal effect (Test Example 1), judged from mortality",[2],A (100)
Cc1cc(Oc2ccc(C(F)(F)F)cn2)ccc1NC(=O)c1cccc([N+](=O)[O-])c1C(=O)NC(C)C [compound 728],"Insecticidal effect on rice leafroller (Test Example 3), judged grade",[1],A (100)
same,"Insecticidal effect on diamondback moth (Test Example 1), judged grade",[2],A (100)
CC(C)NC(=O)c1ccccc1C(=O)Nc1ccc2c(c1)OC(F)(F)C(F)(F)O2 [compound 975],"Insecticidal effect, Test Example 3",[1]; [3],A (100)
same,"Insecticidal effect, Test Example 1",[2]; [4],A (100)
Cc1cc(OCC(F)(F)F)ccc1NC(=O)c1c(I)cccc1C(=O)NC(C)C [compound 443],"Insecticidal effect, Test Example 3",[1]; [5],D (79-50)
same,"Insecticidal effect, Test Example 1",[2]; [6],A (100)
C=CCNC(=O)c1c(C(=O)Nc2ccc(OC(F)F)cc2C)cccc1[N+](=O)[O-] [compound 867],"Insecticidal effect on rice leafroller (Test Example 3), judged grade",[1],C (89-80)
same,"Insecticidal effect on diamondback moth (Test Example 1), judged grade",[2],A (100)
CC(C)NC(=O)c1cccc(F)c1C(=O)Nc1ccc(C(F)(F)C(F)(F)F)cc1Cl [compound 1517],"Insecticidal effect (Test Example 3), judged from mortality",[1]; [5],A (100)
same,"Insecticidal effect (Test Example 1), judged from mortality",[2],A (100)
CC(C)NC(=O)c1ccccc1C(=O)Nc1ccc(C(F)(F)C(F)(F)F)cc1 [compound 889],"Insecticidal effect on rice leafroller (Test Example 3), judged grade",[1],A (100)
same,"Insecticidal effect on diamondback moth (Test Example 1), judged grade",[2],A (100)
C#CCNC(=O)c1ccccc1C(=O)Nc1ccc(C(F)(F)C(F)(F)F)cc1C [compound 1411],"Insecticidal effect, Test Example 3",[1]; [3],A (100)
same,"Insecticidal effect, Test Example 1",[2]; [4],A (100)
Cc1cc(C(F)(F)C(F)(F)F)ccc1N(C)C(=O)c1cccc(Cl)c1C(=O)N(C)Cc1ccccc1 [compound 1553],"Insecticidal effect (Test Example 3), judged from mortality",[1]; [5],A (100)
same,"Insecticidal effect (Test Example 1), judged from mortality",[2],A (100)
COc1ccccc1NC(=O)c1cccc([N+](=O)[O-])c1C(=O)NC(C)C [compound 612],"Insecticidal effect on rice leafroller (Test Example 3), judged grade",[1],D (79-50)
same,"Insecticidal effect on diamondback moth (Test Example 1), judged grade",[2],A (100)
Cc1ccc(NC(=O)c2cccc([N+](=O)[O-])c2C(=O)NC(C)C)c(Cl)c1 [compound 656],"Insecticidal effect on rice leafroller (Test Example 3), judged grade",[1],A (100)
same,"Insecticidal effect on diamondback moth (Test Example 1), judged grade",[2],A (100)
CCN(CC)C(=O)c1c(C(=O)Nc2cc(Cl)ccc2C)cccc1[N+](=O)[O-] [compound 13],"Insecticidal effect, Test Example 3",[1]; [5],D (79-50)
same,"Insecticidal effect, Test Example 1",[2]; [6],D (79-50)
Cc1ccc(Cl)cc1NC(=O)c1c(F)cccc1C(=O)NC(C)C [compound 546],"Insecticidal effect on rice leafroller (Test Example 3), judged grade",[1],A (100)
same,"Insecticidal effect on diamondback moth (Test Example 1), judged grade",[2],A (100)
CCN(CC)C(=O)c1c(C(=O)Nc2ccc(C(F)(F)C(F)(F)F)cc2F)cccc1[N+](=O)[O-] [compound 1134],"Insecticidal effect, Test Example 3",[1]; [3],A (100)
same,"Insecticidal effect, Test Example 1",[2]; [4],A (100)
CCN(CC)C(=O)c1c(F)cccc1C(=O)Nc1ccc(OC(F)(F)C(F)F)cc1C [compound 1529],"Insecticidal effect (Test Example 3), judged from mortality",[1]; [5],A (100)
same,"Insecticidal effect (Test Example 1), judged from mortality",[2],A (100)
Cc1ccc(C)c(NC(=O)c2cccc([N+](=O)[O-])c2C(=O)NC(C)C)c1 [compound 649],"Insecticidal effect on rice leafroller (Test Example 3), judged grade",[1],C (89-80)
same,"Insecticidal effect on diamondback moth (Test Example 1), judged grade",[2],A (100)
CC(C)NC(=O)c1c(C(=O)Nc2cccc(SC(F)(F)F)c2)cccc1[N+](=O)[O-] [compound 623],"Insecticidal effect on rice leafroller (Test Example 3), judged grade",[1],A (100)
same,"Insecticidal effect on diamondback moth (Test Example 1), judged grade",[2],A (100)
CC(C)NC(=O)c1c(C(=O)Nc2ccc([N+](=O)[O-])cc2)cccc1[N+](=O)[O-] [compound 596],"Insecticidal effect on rice leafroller (Test Example 3), judged grade",[1],D (79-50)
same,"Insecticidal effect on diamondback moth (Test Example 1), judged grade",[2],D (79-50)
Cc1cc(Oc2ncc(C(F)(F)F)cc2Cl)ccc1NC(=O)c1cccc([N+](=O)[O-])c1C(=O)NC(C)C [compound 729],"Insecticidal effect on rice leafroller (Test Example 3), judged grade",[1],A (100)
same,"Insecticidal effect on diamondback moth (Test Example 1), judged grade",[2],A (100)
CCN(CC)C(=O)c1c(I)cccc1C(=O)Nc1ccc(OC(F)F)cc1C [compound 1555],"Insecticidal effect (Test Example 3), judged from mortality",[1]; [5],A (100)
same,"Insecticidal effect (Test Example 1), judged from mortality",[2],A (100)
Cc1cc(OC(F)(F)Br)ccc1NC(=O)c1c(F)cccc1C(=O)NC(C)C [compound 565],"Insecticidal effect on rice leafroller (Test Example 3), judged grade",[1],A (100)
same,"Insecticidal effect on diamondback moth (Test Example 1), judged grade",[2],A (100)
Cc1cc(Cl)ccc1NC(=O)c1ccccc1C(=O)N(C)C(C)C [compound 826],"Insecticidal effect on rice leafroller (Test Example 3), judged grade",[1],A (100)
same,"Insecticidal effect on diamondback moth (Test Example 1), judged grade",[2],A (100)
Cc1cc(OC(F)(F)C(F)(F)Br)ccc1NC(=O)c1c(F)cccc1C(=O)NC(C)C [compound 554],"Insecticidal effect on rice leafroller (Test Example 3), judged grade",[1],A (100)
same,"Insecticidal effect on diamondback moth (Test Example 1), judged grade",[2],A (100)
CC(C)NC(=O)c1c(F)cccc1C(=O)Nc1ccc(C(F)(F)C(F)(F)F)cc1F [compound 1514],"Insecticidal effect (Test Example 3), judged from mortality",[1]; [5],A (100)
same,"Insecticidal effect (Test Example 1), judged from mortality",[2],A (100)
CC(C)NC(=O)c1ccccc1C(=O)Nc1ccc2c(c1)nc(C(F)(F)F)n2C [compound 86],"Insecticidal effect, Test Example 3",[1]; [5],B (99-90)
same,"Insecticidal effect, Test Example 1",[2]; [6],B (99-90)
CSc1cccc(C(=O)Nc2ccc(Br)cc2C)c1C(=O)NC(C)C [compound 782],"Insecticidal effect on rice leafroller (Test Example 3), judged grade",[1],A (100)
same,"Insecticidal effect on diamondback moth (Test Example 1), judged grade",[2],A (100)
Cc1cc(OC(F)F)ccc1NC(=O)c1cccc([N+](=O)[O-])c1C(=O)NC1CC1 [compound 852],"Insecticidal effect on rice leafroller (Test Example 3), judged grade",[1],D (79-50)
same,"Insecticidal effect on diamondback moth (Test Example 1), judged grade",[2],A (100)
CC(C)NC(=O)c1cccc(Br)c1C(=O)Nc1ccc(OC(F)(F)F)cc1Br [compound 324],"Insecticidal effect, Test Example 3",[1]; [5],A (100)
same,"Insecticidal effect, Test Example 1",[2]; [6],A (100)
CC(C)NC(=O)c1c(Cl)cccc1C(=O)Nc1ccc(OC(F)F)c(Cl)c1 [compound 134],"Insecticidal effect, Test Example 3",[1]; [5],A (100)
same,"Insecticidal effect, Test Example 1",[2]; [6],A (100)
CCN(CC)C(=O)c1c(C(=O)Nc2ccc(OC(F)(F)F)cc2C)ccc(F)c1F [compound 1285],"Insecticidal effect, Test Example 3",[1]; [3],A (100)
same,"Insecticidal effect, Test Example 1",[2]; [4],A (100)
CCc1ccccc1NC(=O)c1cccc([N+](=O)[O-])c1C(=O)NC(C)C [compound 602],"Insecticidal effect on rice leafroller (Test Example 3), judged grade",[1],A (100)
same,"Insecticidal effect on diamondback moth (Test Example 1), judged grade",[2],A (100)
Cc1cc(OC(F)F)ccc1NC(=O)c1c(Cl)ccc(Cl)c1C(=O)NC(C)C [compound 258],"Insecticidal effect, Test Example 3",[1]; [5],A (100)
same,"Insecticidal effect, Test Example 1",[2]; [6],A (100)
Cc1ccc(Cl)cc1NC(=O)c1cc(Cl)ccc1C(=O)NC(C)C [compound 191],"Insecticidal effect, Test Example 3",[1]; [5],A (100)
same,"Insecticidal effect, Test Example 1",[2]; [6],A (100)
Cc1cc(C(F)(F)C(F)(F)F)ccc1NC(=O)c1c(Cl)cccc1C(=O)N[C@H](C)CO [compound 1461],"Insecticidal effect (Test Example 3), judged from mortality",[1]; [5],A (100)
same,"Insecticidal effect (Test Example 1), judged from mortality",[2],A (100)
Cc1ccc(Cl)cc1NC(=O)c1cccc(OC(F)F)c1C(=O)NC(C)C [compound 773],"Insecticidal effect on rice leafroller (Test Example 3), judged grade",[1],A (100)
same,"Insecticidal effect on diamondback moth (Test Example 1), judged grade",[2],A (100)
